Laboratory results: patent US6342485B1, “Synergistic compositions useful as anti-tumor agents” (priority 1999, dated 2002)
Like-named read-outs stand apart in the source and are kept apart here.

Experiments:
[1] = cited from earlier work
[2] = system: H630 human colorectal tumor cells; experiment: cells; conditions: NCI-H630, 24 h
Experimental: (§2) The antiproliferative activities of FdUMP[10] and 5-FU for the human colorectal tumor cell lines H630 and H630-10 were compared using an assay for 3-(4,5-dimethylthiazol-2-yl)-2,5-diphenyltetrazolium bromide (MTT). H630 and H630-10 cells were cultured using RPMI 1640 containing L-glutamine and supplemented with 10% Nu-serum IV. All culture media were supplemented with penicillin/streptomycin. 25,000 cells were plated (96 well flute-bottom plate) in 200 μL of medium at 37° C. overnight in an air atmosphere containing 5% CO2. The medium was replaced the next day, and cells were exposed to the drugs for 24 h. The medium was then removed from the plates and replaced with 100 μL of fresh medium and 25 μL of MTT solution (5 μg/μL in PBS) per well. Following 2 h incubation, 100)L of MTT solvent (20% w/v SDS dissolved in DMF:H2O [1:1], pH 4.7) was added to each well and the plates were incubated overnight (Senderoff et al., 1990). The plates were analyzed the following morning on a Titerek Multiscan Plus 96-well plate analyzer (v.1.4). The number of viable cells in each well containing cells treated with drug was calculated from the absorbance at 570 nm compared to untreated controls. The means and standard deviation at each concentration for each drug were calculated using standard statistical methods. MTT assays were run in duplicate or triplicate to assure the statistical significance of the results.

[3] = system: H630-10 human colorectal tumor cells; experiment: Clonogenic assay; format: cell-based; conditions: H630-10 cells, 72 h drug exposure
Experimental: (§1) About one thousand viable H630 or H630-10 cells suspended in 10 mL of RPMI 1640 medium with 9% NU serum IV were grown at 37° C. in a humidified 5% CO2-air atmosphere in 100×20 mm plastic petri dishes. After 48 h, the medium was removed, and replaced with 10 mL of fresh medium containing either 5-FU, FdUMP[10], or both 5-FU and FdUMP[10]. After 72 h, the medium containing drugs was removed and replaced by fresh medium. Plates were incubated for 2 to 3 weeks with fresh medium added, if necessary, after which the medium was removed, and the clones were identified by staining with 0.1% methylene blue in 70% ethanol aqueous solution. The number of surviving colonies was counted, and calculated as a percent of controls. Each study was repeated twice.

[4] = system: H630 human colorectal tumor cells; experiment: Clonogenic assay; format: cell-based; conditions: for IC50: Clonogenic assay, H630 cells, 72 h drug exposure
Experimental: as §1

[5] = system: H630-10 human colorectal tumor cells; experiment: MTT assay; format: cell-based; conditions: H630-10 cells, 24 h drug exposure
Source text: All culture media were supplemented with penicillin/streptomycin.

[6] = system: H630 human colorectal tumor cells
Experimental: as §2

H630 cells = experiment: TUNEL assay for induction of apoptosis; format: cell-based, human; conditions: TUNEL staining, H630 cells exposed for 72 h, data not shown
Experimental: About one million H630 cells were seeded into each of the T-75 cell culture flasks. Two days later, after two doubling times, the cells were exposed to FdUMP[10]. The cells were exposed to FdUMP[10] for 72 h, and then fixed with 1% methanol-free formaldehyde for 20 min at 0° C. The fixed-cells were then placed in a 70% ethanol solution at −20° C. for two weeks. The ethanol was then removed, and the cells were washed with PBS and incubated with TdT buffer (Promega), containing equilibration buffer, nucleotide mixture and TdT enzyme, at 37° C. for 1 hour. The reaction was terminated by addition of EDTA solution and the incubation buffer was then removed. The cells were then treated with 0.1% Triton, followed by propidium iodide containing DNase-free RNAse. The cells were kept at room temperature for 30 min, and then analyzed by flow cytometry.

cells = experiment: Preliminary rescue experiments on the mechanism of cytotoxicity; format: cell-based

| IC50 [2] [nM] | IC50 ([3]; Homo sapiens) [nM] | IC50 ([4]; Homo sapiens, NCI-H630) [nM] | IC50 ([5]; Homo sapiens) [nM] | efficiency of FdUMP[10] relative to 5-FU [6] | IC50 ([6]; MTT assay, H630 cells, 24 h drug exposure) [nM] | IC50 [3] [nM] | IC50 [4] [nM] | IC50 [5] [nM] | Molecule | half-life in-vivo [1] | cells undergoing apoptosis (H630 cells) [%] | effect on the growth of H630 cells as single agent ([4]; FdUMP[10] alone at 4.0×10^−8 and 6.0×10^−8 M) | rescue of cells from FdUMP[10] by deoxythymidine (cells) | reversal of the effects of FdUMP[10] by uridine (cells) |
| --- | --- | --- | --- | --- | --- | --- | --- | --- | --- | --- | --- | --- | --- | --- |
| 4870 | 75000 | 3900 | 27100 |  |  |  |  |  | O=c1[nH]cc(F)c(=O)[nH]1 [5-FU, 5-fluorouracil, reference compound] | about 18 minutes |  |  |  |  |
|  |  |  |  | about 400 times | 16.9 | 71 | 250 | 99.5 | FdUMP[10] |  | ~100 | no significant effect | does not rescue | partially reverse |
